{"source": "BindingDB's records for doi:10.1021/jm00007a020", "about": "(Eastern Michigan University, 1995)", "note": "Square brackets hold non-standard residues; d marks the D form. Peptide text beside a SMILES is read from it. Ala(4-thiazolyl) = N[C@@H](Cc1cscn1)C(=O)O; 2Pal = N[C@@H](Cc1ccccn1)C(=O)O; 3Pal = N[C@@H](Cc1cccnc1)C(=O)O; 2Thi = N[C@@H](Cc1cccs1)C(=O)O", "data": [{"experiment": "Inhibition of [3H]- DPDPE binding to delta opioid receptor of guinea pig brain", "units": {"Ki": "nM"}, "values": [{"molecule": "Cc1ccc(C[C@H](NC(=O)[C@H](C)NC(=O)[C@@H](N)Cc2ccc(O)cc2)C(=O)N[C@@H](CC(=O)O)C(=O)N[C@H](C(=O)N[C@H](C(=O)NCC(N)=O)C(C)C)C(C)C)cc1", "note": "[(S)-3-((S)-2-{(S)-2-[(S)-2-Amino-3-(4-hydroxy-phenyl)-propionylamino]-propionylamino}-3-p-tolyl-propionylamino)-N-{(S)-1-[(S)-1-(carbamoylmethyl-carbamoyl)-2-methyl-propylcarbamoyl]-2-methyl-propyl}-succinamic acid]", "Ki": 2650}, {"molecule": "CC(C)[C@H](NC(=O)[C@H](CC(=O)O)NC(=O)[C@H](Cc1c(F)c(F)c(F)c(F)c1F)NC(=O)[C@H](C)NC(=O)[C@@H](N)Cc1ccc(O)cc1)C(=O)N[C@H](C(=O)NCC(N)=O)C(C)C", "note": "[(S)-3-((S)-2-{(S)-2-[(S)-2-Amino-3-(4-hydroxy-phenyl)-propionylamino]-propionylamino}-3-pentafluorophenyl-propionylamino)-N-{(S)-1-[(S)-1-(carbamoylmethyl-carbamoyl)-2-methyl-propylcarbamoyl]-2-methyl-propyl}-succinamic acid]", "Ki": 135}, {"molecule": "Cc1c(C)c(C)c(C[C@H](NC(=O)[C@H](C)NC(=O)[C@@H](N)Cc2ccc(O)cc2)C(=O)N[C@@H](CC(=O)O)C(=O)N[C@H](C(=O)N[C@H](C(=O)NCC(N)=O)C(C)C)C(C)C)c(C)c1C", "note": "[(S)-3-((S)-2-{(S)-2-[(S)-2-Amino-3-(4-hydroxy-phenyl)-propionylamino]-propionylamino}-3-pentamethylphenyl-propionylamino)-N-{(S)-1-[(S)-1-(carbamoylmethyl-carbamoyl)-2-methyl-propylcarbamoyl]-2-methyl-propyl}-succinamic acid]", "Ki": 10000}, {"molecule": "CC(C)[C@H](NC(=O)[C@H](CC(=O)O)NC(=O)[C@H](Cc1ccccn1)NC(=O)[C@H](C)NC(=O)[C@@H](N)Cc1ccc(O)cc1)C(=O)N[C@H](C(=O)NCC(N)=O)C(C)C", "note": "[(S)-3-((S)-2-{(S)-2-[(S)-2-Amino-3-(4-hydroxy-phenyl)-propionylamino]-propionylamino}-3-pyridin-2-yl-propionylamino)-N-{(S)-1-[(S)-1-(carbamoylmethyl-carbamoyl)-2-methyl-propylcarbamoyl]-2-methyl-propyl}-succinamic acid] (H-YA[2Pal]DVVG-NH2)", "Ki": 62}, {"molecule": "CC(C)[C@H](NC(=O)[C@H](CC(=O)O)NC(=O)[C@H](Cc1cccnc1)NC(=O)[C@H](C)NC(=O)[C@@H](N)Cc1ccc(O)cc1)C(=O)N[C@H](C(=O)NCC(N)=O)C(C)C", "note": "[(S)-3-((S)-2-{(S)-2-[(S)-2-Amino-3-(4-hydroxy-phenyl)-propionylamino]-propionylamino}-3-pyridin-3-yl-propionylamino)-N-{(S)-1-[(S)-1-(carbamoylmethyl-carbamoyl)-2-methyl-propylcarbamoyl]-2-methyl-propyl}-succinamic acid] (H-YA[3Pal]DVVG-NH2)", "Ki": 50}, {"molecule": "CC(C)[C@H](NC(=O)[C@H](CC(=O)O)NC(=O)[C@H](Cc1cscn1)NC(=O)[C@H](C)NC(=O)[C@@H](N)Cc1ccc(O)cc1)C(=O)N[C@H](C(=O)NCC(N)=O)C(C)C", "note": "[(S)-3-((S)-2-{(S)-2-[(S)-2-Amino-3-(4-hydroxy-phenyl)-propionylamino]-propionylamino}-3-thiazol-4-yl-propionylamino)-N-{(S)-1-[(S)-1-(carbamoylmethyl-carbamoyl)-2-methyl-propylcarbamoyl]-2-methyl-propyl}-succinamic acid] (H-YA[Ala(4-thiazolyl)]DVVG-NH2)", "Ki": 40}, {"molecule": "CC(C)[C@H](NC(=O)[C@H](CC(=O)O)NC(=O)[C@H](Cc1cccs1)NC(=O)[C@H](C)NC(=O)[C@@H](N)Cc1ccc(O)cc1)C(=O)N[C@H](C(=O)NCC(N)=O)C(C)C", "note": "[(S)-3-((S)-2-{(S)-2-[(S)-2-Amino-3-(4-hydroxy-phenyl)-propionylamino]-propionylamino}-3-thiophen-2-yl-propionylamino)-N-{(S)-1-[(S)-1-(carbamoylmethyl-carbamoyl)-2-methyl-propylcarbamoyl]-2-methyl-propyl}-succinamic acid] (H-YA[2Thi]DVVG-NH2)", "Ki": 1.4}, {"molecule": "CC(C)[C@H](NC(=O)[C@H](CC(=O)O)NC(=O)[C@H](Cc1cccc(F)c1)NC(=O)[C@H](C)NC(=O)[C@@H](N)Cc1ccc(O)cc1)C(=O)N[C@H](C(=O)NCC(N)=O)C(C)C", "note": "[(S)-3-[(S)-2-{(S)-2-[(S)-2-Amino-3-(4-hydroxy-phenyl)-propionylamino]-propionylamino}-3-(3-fluoro-phenyl)-propionylamino]-N-{(S)-1-[(S)-1-(carbamoylmethyl-carbamoyl)-2-methyl-propylcarbamoyl]-2-methyl-propyl}-succinamic acid]", "Ki": 73.6}, {"molecule": "CC(C)[C@H](NC(=O)[C@H](CC(=O)O)NC(=O)[C@H](Cc1ccc(F)cc1)NC(=O)[C@H](C)NC(=O)[C@@H](N)Cc1ccc(O)cc1)C(=O)N[C@H](C(=O)NCC(N)=O)C(C)C", "note": "[(S)-3-[(S)-2-{(S)-2-[(S)-2-Amino-3-(4-hydroxy-phenyl)-propionylamino]-propionylamino}-3-(4-fluoro-phenyl)-propionylamino]-N-{(S)-1-[(S)-1-(carbamoylmethyl-carbamoyl)-2-methyl-propylcarbamoyl]-2-methyl-propyl}-succinamic acid]", "Ki": 703}, {"molecule": "H-YAHDVVG-NH2 [(S)-3-[(S)-2-{(S)-2-[(S)-2-Amino-3-(4-hydroxy-phenyl)-propionylamino]-propionylamino}-3-(3H-imidazol-4-yl)-propionylamino]-N-{(S)-1-[(S)-1-(carbamoylmethyl-carbamoyl)-2-methyl-propylcarbamoyl]-2-methyl-propyl}-succinamic acid]", "Ki": 317}]}]}
